The nature of data set [1]: in vivo. Particulars: rat, iv, 8 mg/kg.
Data set [2] can be described thus: in vivo. As to conditions: rat, iv, 8 mg/kg. The source holds these as a separate data set.
Data set [3] in a line: in vivo. As to conditions: C57BL/6, mouse, plasma, iv, 8 mg/kg.
Data set [4] in a line: in vivo. Particulars: C57BL/6, mouse, plasma, iv, 8 mg/kg. The source holds these as a separate data set.
Data set [5] in a line: in vivo. As to conditions: C57BL/6, mouse, brain, iv, 8 mg/kg.
Data set [6] is described as follows: in vitro. Particulars: C57BL/6, mouse, brain.
Data set [7] in a line: in vivo. As to conditions: C57BL/6, mouse, plasma, iv, 8 mg/kg. The source holds these as a separate data set.
Data set [8] is described as follows: in vitro. As to conditions: C57BL/6, mouse, plasma.
Data set [9] in a line: in vivo. Particulars: C57BL/6, mouse, brain, iv, 8 mg/kg. The source holds these as a separate data set.
The nature of data set [10]: in vivo. Particulars: rat, iv, 8 mg/kg. This is another data set of the same source.
A short description of data set [11]: in vivo. As to conditions: C57BL/6, mouse, iv, 8 mg/kg.
Data set [12] can be described thus: in vivo. As to conditions: C57BL/6, mouse, iv, 8 mg/kg. The source holds these as a separate data set.
Data set [13] is described as follows: in vivo. As to conditions: rat, iv, 8 mg/kg. This is another data set of the same source.
Data set [14] in a line: in vivo. Particulars: C57BL/6, mouse, brain, iv, 8 mg/kg. The source holds these as a separate data set.
A short description of data set [15]: in vivo. As to conditions: rat, iv, 8 mg/kg. This is another data set of the same source.
A short description of data set [16]: in vivo. As to conditions: C57BL/6, mouse, iv, 8 mg/kg. This is another data set of the same source.
Data set [17] in a line: in vivo. As to conditions: C57BL/6, mouse, iv, 8 mg/kg. This is another data set of the same source.
Data set [18] is described as follows: in vivo. As to conditions: C57BL/6, mouse, brain, iv, 8 mg/kg. The source holds these as a separate data set.

This is an account of results in ChEMBL document CHEMBL5518199, “Discovery of Effective Dual PROTAC Degraders for Neurodegenerative Disease-Associated Aggregates” (J Med Chem, 2024).

Usually AUC(0-t) stands for exposure summed from dosing to a finite time, without extrapolation to infinity. High values mean more exposure, low ones less exposure. Broadly, the half-life is how long it takes for the measured level to halve. Low values mean fast loss, high ones slow loss. Broadly, the AUC is the area under the concentration-time curve, a measure of exposure. Lower therefore signals low exposure. One may read the fraction unbound as free concentration divided by total concentration. A low value points to little free substance. As usually defined, the AUC(0-inf) is total exposure, with the tail of the curve extrapolated. In general, Vd refers to the apparent volume that relates the amount in the body to the concentration in plasma or blood. Usually clearance stands for the volume of plasma or blood freed of the substance per unit of time. Read a low clearance as a low capacity for elimination. `Cc1ccc2nc(-c3ccc(NCCOCCOCCOCCNC(=O)COc4cccc5c4C(=O)N(C4CCC(=O)NC4=O)C5=O)cc3)sc2c1` (stereo not drawn): the AUC(0-t) at 24 h in data set [1] came to 65.4 µM·h; in data set [11], 109 µM·h. Further, the half-life at 24 h in [2] is 227 min; in [7], 194 min; in data set [9] it was 253 min. Besides, the exposure (AUC) at 24 h in data set [3] came to 109 µM·h; in data set [5], 6.02 µM·h. The concentration at 0.25 h in [4] turned out to be 67.2 µM; in data set [14] it was 1730 nM. Moreover, the fraction unbound at 24 h is 0.397 in data set [6] and 0.442 in [8]. Further, the AUC(0-inf) at 24 h in data set [10] was 65.5 µM·h; in data set [12], 109 µM·h. Also, the Vd at 24 h in data set [13] is 0.92 L/kg; in data set [17], 0.48 L/kg. Also, the clearance at 24 h in data set [15] was 2 mL/min/kg; in [16], 1.68 mL/min/kg. Also, in data set [18], the concentration at 168.25 h came to 2700 nM.
